Results on ten compounds are retold here after patent publication US7393864B2, “Use of ClC3 chloride channel blockers to modulate vascular tone” (University of Iowa Research Foundation, priority 1999, dated 2008).

The structures appear in SMILES notation.

Data set [1] concerns isolated rings of rat aorta. The data set can be described thus: Contractile response to ED80 norepinephrine or KCl in isolated rings of rat aorta (earlier studies, Lamb and Barna 1998). The settings on record: for Vasodilator effect in the presence of NE or KCl: denuded blood vessel segments; for Effect on contractile response to ED80 concentrations of NE or KCl: rings with intact endothelium. From the text:
The above experiments were reported in Lamb and Barna, Am. J. Physiol., 275 H151 (1998) and Lamb and Barna, Am. J. Physiol., 275, 161 (1998), and are incorporated herein by reference.

The test system of data set [2] is swelling-induced Cl ion current in cultured human aortic and coronary vascular smooth muscle cells. Briefly: Whole-cell voltage-clamp of swelling-induced chloride current. Format: cell-based. The conditions noted are these: for Effect on swelling-induced Cl current: hypotonic conditions, whole-cell patch clamp, β-estradiol 10^−7 M, H-7 10^−5 M. As for the experimental part: Electrophysiology. Chloride ion currents were measured from cultured human aortic and coronary vascular smooth muscle cells at room temperature (22-24° C. using standard whole-cell voltage-clamp techniques (Hamill et al., 1981; Lamb et al., 1994) and an Axopatch 200B patch-clamp amplifier driven by pClamp software (Axon Instruments). The hypotonic (250 mOsm/kg by freezing point depression) bath solution contained (mM): NaCl 125, MgCl2 2.5, CaCl2 2.5, HEPES 10, pH 7.2. Isotonic bath solution had the same ionic composition as the hypotonic solution except that the osmolality was adjusted to 300 mOsm/kg by adding mannitol. Pipette solution contained (mM): N′-methyl-D-glucamine chloride (NMDG—Cl) 135, EGTA 2, Mg-ATP 5, HEPES 10, pH 7.2 with osmolality adjusted to 300 mOsm/kg by adding mannitol. Thus, the chloride equilibrium potential remained 0 mV under both isotonic and hypotonic conditions. All components of the buffer solutions were obtained from Sigma. Pipette resistances were 3-5 MOhms.
For orientation: In patch-clamp work, channel activity is measured electrically.

In data set [3] the test system is isolated aortic rings from male wild-type, heterozygote and Clcn3 knockout mice. Briefly: Dose-response to norepinephrine in isolated mouse aortic rings. The conditions noted are these: L-NNA 10^−4 M, wild-type tissues, FIG. 17. As for the experimental part:
Animals were sacrificed by exposure to 100% CO2 for five minutes followed by cervical dislocation. Thoracic aortae were removed, cleaned of adherent connective tissue and cut into 4 rings. […] Contractile responses were recorded using a MacLab 8E and stored on a Power MacIntosh 6400/200 computer. Passive stretch was set at 5.0 mN and the rings were allowed to equilibrate in Physiologic Salt Solution (PSS) at 37° C. for 60 minutes prior to the start of experimentation.

For data set [4], the system named is Clcn3 knockout, heterozygous and wild type mice. The data set can be described thus: Pentylenetetrazole-induced seizure susceptibility. Type of data set: in vivo, mouse. The settings on record: PTZ 70 mg/kg i.p. As for the experimental part: The proconvulsant, pentylenetetrazole (PTZ), was dissolved at 7 mg/ml in sterile 0.9% NaCl and administered to drug-naive mice at 70 mg/kg i.p. in a quiet daytime laboratory setting. Parameters measured during the 15-minute observation period included time to onset of generalized tonic-clonic or tonic seizures, and duration of the first generalized seizure. Lethality was assessed 60 minutes post-injection (Loscher and Nolting, 1991).

The test system of a further data set is erectile function. The conditions noted are these: cited from earlier work.
Another data set concerns Clcn3^−/− mice. Briefly: Recovery from sedatives in adult Clcn3-/- mice.
Data set [5] has as its system rat thoracic aorta rings (vascular smooth muscle), intact or denuded endothelium. The data set can be described thus: Norepinephrine-induced contraction of isolated aortic rings, isometric tension. The conditions noted are these: 10 μM tamoxifen, FIG. 2.
Description: Adult male Sprague-Dawley rats (250-300 g) were obtained from Harlan Sprague Dawley. The animals were killed by exposure to 100% CO2 for 5 minutes, followed by cervical dislocation. Thoracic aortas were removed, cleaned of adherent connective tissue, and cut into 6 mm rings. The endothelium was left intact, and the rings were mounted in individual 10 ml isolated organ chambers using standard methods for recording of isometric tension. Contractile responses were recorded with an eight-channel MacLab8E and stored on a Power Macintosh 7200 computer. Passive stretch was set at 2.5 g, and the rings were allowed to equilibrate in physiological salt solution (PSS) at 37° C. for 120 minutes before the start of experimentation. PSS was aerated with a mixture of 95% 2-5% CO2; the composition was as follows (in mM): 130 NaCl, 4.7 KCl, 1.18 KH2PO4, 1.17 MgSO47H2O, 14.9 NaHCO3, 1.6 CaCl2H2O, 5.5 dextrose, and 0.03 CaNa2-EDTA 0.03 (pH 7.30).
Intact and denuded aortic blood vessel segments were prepared, mounted as described in Example 1. • 2. […] Aliquots of NE (Sigma Chemical, St. Louis, Mo.), which had been dissolved directly into aqueous solution was applied to the vessel segments at concentrations between 10^−10 and 10^−5 M, and the contractile response measured as described above.
For data set [6], the system named is isolated rings of rat aorta. The conditions noted are these: vasculature with intact endothelium; Lamb and Barna 1998; cited from earlier work.
Data set [7] relates to ion channel responsible for swelling-induced chloride conductance (CLC3). The conditions noted are these: Duan et al. 1997; Nilius et al. 1994; cited from earlier work.
In data set [8] the test system is rat thoracic aorta rings (vascular smooth muscle), intact or denuded endothelium. Briefly: KCl-induced contraction of isolated aortic rings, isometric tension. The settings on record: 10 μM tamoxifen, FIG. 3. As for the experimental part: Adult male Sprague-Dawley rats (250-300 g) were obtained from Harlan Sprague Dawley. The animals were killed by exposure to 100% CO2 for 5 minutes, followed by cervical dislocation. Thoracic aortas were removed, cleaned of adherent connective tissue, and cut into 6 mm rings. The endothelium was left intact, and the rings were mounted in individual 10 ml isolated organ chambers using standard methods for recording of isometric tension. Contractile responses were recorded with an eight-channel MacLab8E and stored on a Power Macintosh 7200 computer. Passive stretch was set at 2.5 g, and the rings were allowed to equilibrate in physiological salt solution (PSS) at 37° C. for 120 minutes before the start of experimentation. PSS was aerated with a mixture of […]; the composition was as follows (in mM): 130 NaCl, 4.7 KCl, 1.18 KH2PO4, 1.17 MgSO47H2O, 14.9 NaHCO3, 1.6 CaCl2H2O, 5.5 dextrose, and 0.03 CaNa2-EDTA 0.03 (pH 7.30).
Data were expressed as a percentage of the maximal response of each ring to the agonist.
• 1. Intact and denuded aortic blood vessel segments were prepared and mounted as described in Example 1. • 2. […] Cl (Sigma Chemical, St. Louis, Mo.), was applied to the vessels at 2, 4, 8, 12, 16, 20, 28, 40, 60, 80, and 100 mM concentrations, and the contractile response measured as described above.

Turning to `O=S(=O)(O)c1cc(N=C=S)ccc1C=Cc1ccc(N=C=S)cc1S(=O)(=O)O` [DIDS, 4,4′-diisothiocyanato stilbene-2,2′disulphonic acid], in data set [1], the “Vasodilator effect in the presence of NE or KCl” value is “persisted” and the “Effect on contractile response to ED80 concentrations of NE or KCl” value is “significantly inhibited”.

`CC1CNCCN1S(=O)(=O)c1cccc2cnccc12` (stereo not drawn) [H-7]: in data set [2], the “Effect on swelling-induced Cl current” value is “increased”.

With `NC(=NCCC[C@H](N)C(=O)O)N[N+](=O)[O-]` [L-NNA], the “Responsiveness to norepinephrine when endothelial nitric oxide synthase is inhibited” value in data set [3] is “increase in responsiveness”.

Take `C1CCc2nnnn2CC1` [PTZ, pentylenetetrazole]: the “Mice with generalized seizures” value is recorded as 87.5% in [4] (Clcn3^+/+ mice (7/8)) and 86.7% in data set [4] (Clcn3^+/− mice (13/15), 4-5 weeks old). For the same compound, the “Onset of generalized seizures” value in [4] (Clcn3^+/+ mice) is 280 ± 112 s; in data set [4] (Clcn3^+/− mice), 215 ± 56 s. Besides, the “Mice with seizure activity” value in [4] (Clcn3^−/− mice (1/8)) worked out at 12.5%. The “Onset of seizure activity” value in data set [4] (Clcn3^−/− mice) came to 58 s.

As to `CN1CCc2cccc3c2[C@H]1Cc1ccc(O)c(O)c1-3` [apomorphine], the “Men returned to sexual potency” value in the data set on erectile function (men whose dysfunction had psychological origins) is recorded as “about 70%”. In addition, the “Time to response following administration” value in the data set on erectile function (sublingual) is 20 to 40 min.

As for `Cc1ncc2n1-c1ccc(Cl)cc1C(c1ccccc1F)=NC2` [midazolam], in the data set with Clcn3^−/− mice, the “Recovery time from sedation” value was “prolonged recovery time”.

Consider `O=C(O)c1cccnc1Nc1cccc(C(F)(F)F)c1` [niflumic acid], for which, in [1], the “Vasodilator effect in the presence of NE or KCl” value is given as “persisted” and the “Effect on contractile response to ED80 concentrations of NE or KCl” value is “significantly inhibited”.

As to `CCCC(C)C1(CC)C(=O)NC(=O)NC1=O` (stereo not drawn) [pentobarbital], in the data set with Clcn3^−/− mice, the “Recovery time from sedation” value was “prolonged recovery time”. The Incidence of death entry in the data set on Clcn3^−/− mice (even at reduced doses) is listed as “increased incidence of death”.

Turning to `CC/C(=C(\c1ccccc1)c1ccc(OCCN(C)C)cc1)c1ccccc1` [tamoxifen, 1-p-β-dimethylaminoethoxyphenyl-trans-1,2-diphenylbut-1-ene], the “Effect on NE sensitivity/contractility of endothelially compromised (denuded) vessel segments” value in data set [5] is “shifts the dose-response curve of NE back to the right”. For the same compound, in [6], the “Effect on norepinephrine-induced contraction of normal vasculature” value is given as “no effect”. Moreover, the Swelling-induced chloride current in data set [2] (hypotonic + H7 (10^−5 M) + tamoxifen, n=3, hypotonic 1204±313 pA) is on record as 878±493 pA. Further, in data set [2], the “Effect on swelling-induced Cl current” value was “inhibited”. Moreover, the “Block of ion channel responsible for swelling-induced chloride conductance” value in data set [7] is reported as “block”. For the same compound, in data set [8], the “Effect on KCl sensitivity/contractility of denuded vessel segments” value is listed as “corrects the increase in vascular smooth muscle sensitivity to KCl”.

Regarding `C[C@]12CC[C@@H]3c4ccc(O)cc4CC[C@H]3[C@@H]1CC[C@@H]2O` [β-estradiol], in data set [2] (hypotonic plus estradiol 10^−7 M, +120 mV, n=5, hypotonic only 1451±495 pA), the “Swelling-induced Cl current (ICl)” value was determined as 3513±856 pA.
